Six molecules from US12139520B2 (priority 2020, dated 2024) can be followed below.

Data set [1] can be described thus: Physical stability of peptide analogues (Thioflavin T fibrillation). It counts as physicochemical. The conditions noted are these: maximum ThT signal normalized between hAMY maximum and buffer background; 40° C., shaking, four days; pH 7 per table title. In outline: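 Maximum ThT emission at 480 nm, after LOESS smoothing, is given as percent of the span from buffer background to hAMY. Conditions: 50 mM buffer at pH 4 or 7, 4 μM dye, 40 °C, repeated shaking, readings every 10 min for four days.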

Data set [2] concerns the target T1, hAMY3 receptor (Homo sapiens, UniProt O60896+P30988).
T1 sequence (P30988 25-474): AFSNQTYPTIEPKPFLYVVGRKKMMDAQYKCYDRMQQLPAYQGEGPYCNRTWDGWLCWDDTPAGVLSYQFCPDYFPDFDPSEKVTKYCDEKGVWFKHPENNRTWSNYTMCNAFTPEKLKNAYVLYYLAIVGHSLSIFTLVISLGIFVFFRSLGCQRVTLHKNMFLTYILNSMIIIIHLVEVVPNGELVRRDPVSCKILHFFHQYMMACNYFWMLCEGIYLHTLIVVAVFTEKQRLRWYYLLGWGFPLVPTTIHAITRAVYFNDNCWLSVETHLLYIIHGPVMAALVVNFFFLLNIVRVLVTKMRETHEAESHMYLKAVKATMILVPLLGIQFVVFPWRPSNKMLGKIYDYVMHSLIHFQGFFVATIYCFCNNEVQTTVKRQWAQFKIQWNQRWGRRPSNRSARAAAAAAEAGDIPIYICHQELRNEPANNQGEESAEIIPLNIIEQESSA
T1 sequence (O60896 24-148 partner): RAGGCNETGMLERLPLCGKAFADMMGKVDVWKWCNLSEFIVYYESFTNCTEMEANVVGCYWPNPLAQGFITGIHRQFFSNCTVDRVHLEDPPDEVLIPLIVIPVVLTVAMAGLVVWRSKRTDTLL
The data set is described as follows: cAMP assay for in vitro receptor activation, hAMY3-R. The conditions noted are these: cAMP assay, hAMY3 receptor; read-out: hAMY3R EC50. It counts as cell-based. The procedure, abridged:
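Read-out is TR-FRET cAMP signal, recorded one hour after reagent addition, following 30 min room-temperature stimulation of stable hAMY3 cells with graded compound doses in casein/IBMX (0.5 mM) buffer.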

For orientation: EC50 means the midpoint of the concentration-response curve.

SMILES strings stand for the structures. Bridge positions count the residues as written; N and C are the ends. Square brackets hold non-standard residues; d marks the D form. Peptide text beside a SMILES is read from it. Hyp = O=C(O)[C@@H]1C[C@@H](O)CN1; Cit = NC(=O)NCCC[C@H](N)C(=O)O

For `CC[C@H](C)[C@H](NC(=O)[C@H](CCCCN)NC(=O)[C@H](CO)NC(=O)[C@H](CCCNC(=N)N)NC(=O)[C@@H]1CCCN1C(=O)[C@H](C)NC(=O)[C@@H](NC(=O)[C@H](CC(N)=O)NC(=O)[C@H](CC(=O)O)NC(=O)[C@H](CCCCN)NC(=O)[C@H](CC(=O)O)NC(=O)[C@H](CCCCN)NC(=O)[C@H](CC(=O)O)NC(=O)[C@@H](NC(=O)[C@H](Cc1ccccc1)NC(=O)[C@H](CCC(N)=O)NC(=O)[C@H](Cc1ccc(O)cc1)NC(=O)[C@@H](NC(=O)[C@H](CCC(N)=O)NC(=O)[C@H](Cc1c[nH]cn1)NC(=O)[C@H](C)NC(=O)[C@H](CC(C)C)NC(=O)[C@H](CCCNC(=N)N)NC(=O)[C@H](CCC(N)=O)NC(=O)[C@@H](NC(=O)[C@@H](NC(=O)[C@@H]1CSSC[C@H](NC(=O)CN)C(=O)N[C@@H](CCCNC(=N)N)C(=O)N[C@@H](Cc2ccccc2)C(=O)NCC(=O)N[C@@H]([C@@H](C)O)C(=O)N1)[C@@H](C)O)C(C)C)[C@@H](C)CC)[C@@H](C)O)C(C)C)C(=O)NCC(=O)N1CCC[C@H]1C(=O)N[C@@H](CCC(N)=O)C(=O)NCC(=O)N[C@@H](Cc1ccc(O)cc1)C(N)=O` [compound 387] (H-GCRFGTCTVQRLAHQIYQFTDKDKDNVAPRSKIGPQGY-NH2; disulfide 2-7; N-terminus assumed), in data set [1], the “Max ThT signal (%)” value is reported as 14.300%. Also, the EC50 in data set [2] was found to be 40 pM.
On the same counts, the results for `CC[C@H](C)[C@H](NC(=O)[C@H](CCC(N)=O)NC(=O)[C@H](Cc1c[nH]cn1)NC(=O)[C@H](C)NC(=O)[C@H](CC(C)C)NC(=O)[C@H](CCCNC(N)=O)NC(=O)[C@H](CCC(N)=O)NC(=O)[C@@H](NC(=O)[C@@H](NC(=O)[C@@H]1CSSC[C@H](NC(=O)CN)C(=O)N[C@@H](CCCNC(=N)N)C(=O)N[C@@H](Cc2ccccc2)C(=O)NCC(=O)N[C@@H]([C@@H](C)O)C(=O)N1)[C@@H](C)O)C(C)C)C(=O)N[C@@H](Cc1ccc(O)cc1)C(=O)N[C@@H](CCC(N)=O)C(=O)N[C@@H](Cc1ccccc1)C(=O)N[C@H](C(=O)N[C@@H](CC(=O)O)C(=O)N[C@@H](CCCCN)C(=O)N[C@@H](CC(=O)O)C(=O)N[C@@H](CCCCN)C(=O)N[C@@H](CC(=O)O)C(=O)N[C@@H](CC(N)=O)C(=O)N[C@H](C(=O)N[C@@H](C)C(=O)N1CCC[C@H]1C(=O)N[C@@H](CCCNC(=N)N)C(=O)N[C@H](C(=O)N[C@@H](CC(N)=O)C(=O)N[C@H](C(=O)N[C@@H](CO)C(=O)N1CCC[C@H]1C(=O)N[C@@H](CC(N)=O)C(=O)NCC(=O)N[C@@H](Cc1ccc(O)cc1)C(N)=O)C(C)C)[C@@H](C)O)C(C)C)[C@@H](C)O` [compound 271] (H-GCRFGTCTVQ[Cit]LAHQIYQFTDKDKDNVAPRTNVSPNGY-NH2; disulfide 2-7; N-terminus assumed) are 10.850% and 10 pM.
On the same counts, the results for `CC[C@H](C)[C@H](NC(=O)[C@H](CCC(N)=O)NC(=O)[C@H](Cc1c[nH]cn1)NC(=O)[C@H](C)NC(=O)[C@H](CC(C)C)NC(=O)[C@H](CCCNC(=N)N)NC(=O)[C@H](CCC(N)=O)NC(=O)[C@@H](NC(=O)[C@@H](NC(=O)[C@@H]1CSSC[C@H](NC(=O)CN)C(=O)N[C@@H](CCCNC(=N)N)C(=O)N[C@@H]([C@@H](C)O)C(=O)NCC(=O)N[C@@H]([C@@H](C)O)C(=O)N1)[C@@H](C)O)C(C)C)C(=O)N[C@@H](Cc1ccc(O)cc1)C(=O)N[C@@H](CCC(N)=O)C(=O)N[C@@H](Cc1ccccc1)C(=O)N[C@H](C(=O)N[C@@H](CC(=O)O)C(=O)N[C@@H](CCCCN)C(=O)N[C@@H](Cc1ccccc1)C(=O)N[C@@H](CCCCN)C(=O)N[C@@H](CC(=O)O)C(=O)N[C@@H](CC(N)=O)C(=O)N[C@H](C(=O)N[C@@H](C)C(=O)N1CCC[C@H]1C(=O)N[C@@H](CCCNC(=N)N)C(=O)N[C@@H](CO)C(=O)N[C@@H](CCCCN)C(=O)N[C@H](C(=O)N[C@@H](CO)C(=O)N1CCC[C@H]1C(=O)N[C@@H](CCC(N)=O)C(=O)N[C@@H](Cc1c[nH]cn1)C(=O)N1C[C@H](O)C[C@H]1C(N)=O)[C@@H](C)CC)C(C)C)[C@@H](C)O` [compound 201] (H-GCRTGTCTVQRLAHQIYQFTDKFKDNVAPRSKISPQH[Hyp]-NH2; disulfide 2-7; N-terminus assumed) are 1.000% and 126 pM.
On the same counts, the results for `CC[C@H](C)[C@H](NC(=O)[C@H](CCC(N)=O)NC(=O)[C@H](Cc1c[nH]cn1)NC(=O)[C@H](C)NC(=O)[C@H](CC(C)C)NC(=O)[C@H](CCCNC(N)=O)NC(=O)[C@H](CCC(N)=O)NC(=O)[C@@H](NC(=O)[C@@H](NC(=O)[C@@H]1CSSC[C@H](NC(=O)CN)C(=O)N[C@@H](CCCNC(=N)N)C(=O)N[C@@H](Cc2ccccc2)C(=O)NCC(=O)N[C@@H]([C@@H](C)O)C(=O)N1)[C@@H](C)O)C(C)C)C(=O)N[C@@H](Cc1ccc(O)cc1)C(=O)N[C@@H](CCC(N)=O)C(=O)N[C@@H](Cc1ccccc1)C(=O)N[C@H](C(=O)N[C@@H](CC(=O)O)C(=O)N[C@@H](CCCCN)C(=O)N[C@@H](CC(=O)O)C(=O)N[C@@H](CCCCN)C(=O)N[C@@H](CC(=O)O)C(=O)N[C@@H](CC(N)=O)C(=O)N[C@H](C(=O)N[C@@H](C)C(=O)N1CCC[C@H]1C(=O)N[C@@H](CCCNC(=N)N)C(=O)N[C@H](C(=O)N[C@@H](CC(N)=O)C(=O)N[C@H](C(=O)NCC(=O)N1CCC[C@H]1C(=O)N[C@@H](CC(N)=O)C(=O)NCC(=O)N1C[C@H](O)C[C@H]1C(N)=O)C(C)C)[C@@H](C)O)C(C)C)[C@@H](C)O` [compound 270] (H-GCRFGTCTVQ[Cit]LAHQIYQFTDKDKDNVAPRTNVGPNG[Hyp]-NH2; disulfide 2-7; N-terminus assumed) are 25.450% and 3 pM.
Regarding `CC[C@H](C)[C@H](NC(=O)[C@H](CCCCN)NC(=O)[C@H](CO)NC(=O)[C@H](CCCNC(=N)N)NC(=O)[C@@H]1CCCN1C(=O)[C@H](C)NC(=O)[C@@H](NC(=O)[C@H](CC(N)=O)NC(=O)[C@H](CC(=O)O)NC(=O)[C@H](CCCCN)NC(=O)[C@H](CC(=O)O)NC(=O)[C@H](CCCCN)NC(=O)[C@H](CC(=O)O)NC(=O)[C@@H](NC(=O)[C@H](Cc1ccccc1)NC(=O)[C@H](CCC(N)=O)NC(=O)[C@H](Cc1ccc(O)cc1)NC(=O)[C@@H](NC(=O)[C@H](CCC(N)=O)NC(=O)[C@H](Cc1c[nH]cn1)NC(=O)[C@H](C)NC(=O)[C@H](CC(C)C)NC(=O)[C@H](CCCNC(N)=O)NC(=O)[C@H](CCC(N)=O)NC(=O)[C@@H](NC(=O)[C@@H](NC(=O)[C@@H]1CSSC[C@H](NC(=O)CN)C(=O)N[C@@H](CCCNC(=N)N)C(=O)N[C@@H](Cc2ccccc2)C(=O)NCC(=O)N[C@@H]([C@@H](C)O)C(=O)N1)[C@@H](C)O)C(C)C)[C@@H](C)CC)[C@@H](C)O)C(C)C)C(=O)NCC(=O)N1CCC[C@H]1C(=O)N[C@@H](CCC(N)=O)C(=O)NCC(=O)N1C[C@H](O)C[C@H]1C(N)=O` [compound 284] (H-GCRFGTCTVQ[Cit]LAHQIYQFTDKDKDNVAPRSKIGPQG[Hyp]-NH2; disulfide 2-7), the “Max ThT signal (%)” value in data set [1] was 21.300%. Moreover, the EC50 in data set [2] is 28 pM.
In the case of `CC[C@H](C)[C@H](NC(=O)[C@H](CCC(N)=O)NC(=O)[C@H](Cc1c[nH]cn1)NC(=O)[C@H](C)NC(=O)[C@H](CC(C)C)NC(=O)[C@H](CCCNC(=N)N)NC(=O)[C@H](CCC(N)=O)NC(=O)[C@@H](NC(=O)[C@@H](NC(=O)[C@@H]1CSSC[C@H](NC(=O)CN)C(=O)N[C@@H](CCCNC(=N)N)C(=O)N[C@@H](Cc2ccccc2)C(=O)NCC(=O)N[C@@H]([C@@H](C)O)C(=O)N1)[C@@H](C)O)C(C)C)C(=O)N[C@@H](Cc1ccc(O)cc1)C(=O)N[C@@H](CCC(N)=O)C(=O)N[C@@H](Cc1ccccc1)C(=O)N[C@H](C(=O)N[C@@H](CC(=O)O)C(=O)N[C@@H](CCCCN)C(=O)N[C@@H](CC(=O)O)C(=O)N[C@@H](CCCCN)C(=O)N[C@@H](CC(=O)O)C(=O)N[C@@H](CC(N)=O)C(=O)N[C@H](C(=O)N[C@@H](C)C(=O)N1CCC[C@H]1C(=O)N[C@@H](CCCNC(=N)N)C(=O)N[C@H](C(=O)N[C@@H](CC(N)=O)C(=O)N[C@H](C(=O)N[C@@H](CO)C(=O)N1CCC[C@H]1C(=O)N[C@@H](CCC(N)=O)C(=O)NCC(=O)N[C@@H](Cc1ccc(O)cc1)C(N)=O)C(C)C)[C@@H](C)O)C(C)C)[C@@H](C)O` [compound 116] (H-GCRFGTCTVQRLAHQIYQFTDKDKDNVAPRTNVSPQGY-NH2; disulfide 2-7; N-terminus assumed), the “Max ThT signal (%)” value in data set [1] was 11.700%. In addition, in data set [2], the EC50 was determined as 24 pM.
